Measurements from DBAASP.
Converted amounts (≈) assume the structure as drawn. Values belong to the molecule of their own block, whether it stands above or below them.

Experiments:
Experiment in all cases: ≥ marks a high value that may be exact or a test limit, other limits are often not marked, values filed in µg/mL are converted to µM
[1] = system: Acinetobacter baumannii ATCC 7978
[2] = system: Klebsiella pneumoniae WGLW2
[3] = system: Pseudomonas aeruginosa PA14
[4] = system: Staphylococcus aureus ATCC 29231
[5] = system: Bacillus subtilis CCT 2471
[6] = system: Bacillus subtilis KACC 10196
[7] = system: Candida albicans ATCC 90028
[8] = system: Candida albicans KACC 30071
Candida albicans = system: Candida albicans
[9] = system: Enterobacter cloacae ATCC 23355
[10] = system: Enterococcus faecalis KACC 11304
[11] = system: Escherichia coli CCT 1371
[12] = system: Escherichia coli KACC 1039
[13] = system: Klebsiella pneumoniae ATCC 13883
[14] = system: Klebsiella pneumoniae KCTC 2242
[15] = system: Pseudomonas aeruginosa ATCC 27853
[16] = system: Pseudomonas aeruginosa ATCC 9027
[17] = system: Pseudomonas aeruginosa KACC 10259
[18] = system: Staphylococcus aureus ATCC 6535
[19] = system: Staphylococcus aureus KACC 10196
[20] = system: Staphylococcus aureus USA 100
[21] = system: Staphylococcus aureus USA 300
[22] = system: Staphylococcus saprophyticus
[23] = system: Escherichia coli ATCC 25922
[24] = system: Saccharomyces cerevisiae AS2.430
[25] = system: Staphylococcus aureus ATCC 25923
[26] = system: Enterococcus faecium E007
[27] = system: Staphylococcus aureus MW2
[28] = system: Acinetobacter baumannii ATCC 19606
Acinetobacter baumannii = system: Acinetobacter baumannii
[29] = system: Corynebacterium jeikeium ATCC BAA-949
Enterococcus faecalis = system: Enterococcus faecalis
Escherichia coli D21 = system: Escherichia coli D21
Escherichia coli O111:B4 = system: Escherichia coli O111:B4
[30] = system: Staphylococcus aureus ATCC 29213
[31] = system: Staphylococcus aureus Cowan 1
Staphylococcus capitis 1 = system: Staphylococcus capitis 1
[32] = system: Staphylococcus epidermidis ATCC 12228
[33] = system: Yersinia pseudotuberculosis YPIII
[34] = system: Bifidobacterium longum subsp. infantis
Escherichia coli = system: Escherichia coli
Staphylococcus aureus = system: Staphylococcus aureus
[35] = system: Enterobacter cloacae ATCC 13047
[36] = system: Enterococcus faecium ATCC 19434
[37] = system: Escherichia coli BW25113 ΔsbmA
Escherichia coli BW25113 = system: Escherichia coli BW25113
[38] = system: Klebsiella pneumoniae ATCC 700603

Structure (SMILES): CC[C@H](C)[C@H](NC(=O)[C@H](Cc1c[nH]c2ccccc12)NC(=O)[C@H](CCCCN)NC(=O)[C@@H](N)CC(C)C)C(=O)NCC(=O)N[C@@H](CCCCN)C(=O)N[C@@H](CCCCN)C(=O)N[C@H](C(=O)N[C@@H](Cc1c[nH]c2ccccc12)C(=O)N[C@@H](CCCN=C(N)N)C(=O)N[C@H](C(=O)NCC(=O)O)C(C)C)[C@@H](C)CC [LKWIGKKIWRVG]
MIC [1]: ≥ 86.3 µM
MIC [2]: ≥ 86.3 µM
MIC [3]: ≥ 86.3 µM
MIC [4]: ≥ 86.3 µM

Structure (SMILES): CC[C@H](C)[C@H](NC(=O)[C@H](CO)NC(=O)[C@@H](NC(=O)[C@H](CCCCN)NC(=O)[C@H](Cc1ccccc1)NC(=O)[C@@H]1CCCN1)[C@@H](C)CC)C(=O)N[C@@H](Cc1cnc[nH]1)C(=O)N[C@@H](CC(C)C)C(N)=O [PFKISIHL]
MIC [5]: 10.5 µM (≈ 9.99 µg/mL)
MIC [6]: 4 µM (≈ 3.81 µg/mL)
MIC [7]: ≥ 50 µM
MIC [8]: 16 µM (≈ 15.3 µg/mL)
MIC (Candida albicans): 2.62 µM (≈ 2.5 µg/mL)
MIC [9]: 10.5 µM (≈ 9.99 µg/mL)
MIC [10]: 16 µM (≈ 15.3 µg/mL)
MIC [11]: 2.62 µM (≈ 2.5 µg/mL)
MIC [12]: 8 µM (≈ 7.63 µg/mL)
MIC [13]: 10.5 µM (≈ 9.99 µg/mL)
MIC [14]: 8 µM (≈ 7.63 µg/mL)
MIC [15]: 10.5 µM (≈ 9.99 µg/mL)
MIC [16]: 50 µM (≈ 47.7 µg/mL)
MIC [17]: 8 µM (≈ 7.63 µg/mL)
MIC [18]: 10.5 µM (≈ 9.99 µg/mL)
MIC [19]: 16 µM (≈ 15.3 µg/mL)
MIC [20]: ≥ 50 µM
MIC [21]: ≥ 50 µM
MIC [22]: 15.7 µM (≈ 15 µg/mL)

Structure (SMILES): CC(C)C[C@H](NC(=O)[C@H](CCC(=O)O)NC(=O)[C@@H](N)CCCCN)C(=O)N[C@@H](CCC(=O)O)C(=O)N[C@@H](CCC(=O)O)C(=O)N[C@@H](CCCCN)C(=O)O [KELEEK]
MIC [23]: 807 µM (≈ 625 µg/mL)
MIC [24]: ≥ 25800 µM
MIC [25]: 403 µM (≈ 313 µg/mL)

Structure (SMILES): CC[C@H](C)[C@H](N)C(=O)N[C@H](C(=O)NCC(=O)N1CCC[C@H]1C(=O)N[C@H](C(=O)N[C@@H](CC(C)C)C(=O)NCC(=O)N[C@@H](CC(C)C)C(=O)N[C@H](C(=O)NCC(=O)N[C@@H](CO)C(=O)N[C@@H](C)C(=O)N[C@@H](CC(C)C)C(=O)NCC(=O)NCC(=O)N[C@@H](CC(C)C)C(=O)N[C@@H](CC(C)C)C(=O)N[C@@H](CCCCN)C(=O)N[C@@H](CCCCN)C(=O)N[C@H](C(N)=O)[C@@H](C)CC)C(C)C)C(C)C)[C@@H](C)CC [IIGPVLGLVGSALGGLLKKI]
MIC [28]: 12.5 µM (≈ 24 µg/mL)
MIC (Acinetobacter baumannii): ≥ 50 µM
MIC [29]: 8 µM (≈ 15.3 µg/mL)
MIC (Enterococcus faecalis): ≥ 50 µM
MIC [23]: > 50 µM
MIC (Escherichia coli D21): ≥ 50 µM
MIC (Escherichia coli O111:B4): ≥ 50 µM
MIC [15]: > 50 µM
MIC [30]: 12.5 µM (≈ 24 µg/mL)
MIC [31]: 12.5 µM (≈ 24 µg/mL)
MIC (Staphylococcus capitis 1): 12.5 µM (≈ 24 µg/mL)
MIC [32]: 12.5 µM (≈ 24 µg/mL)
MIC [33]: 12.5 µM (≈ 24 µg/mL)

Structure (SMILES): CC[C@H](C)[C@H](NC(=O)[C@@H]1CCCN1C(=O)[C@@H](N)CCC(=O)O)C(=O)N1CCC[C@H]1C(=O)N[C@@H](CC(C)C)C(=O)N[C@@H](CCC(=O)O)C(=O)N[C@@H](CO)C(=O)N[C@@H](CCCN=C(N)N)C(=O)N[C@@H](CCC(=O)O)C(=O)N[C@@H](CCC(=O)O)C(=O)O [EPIPLESREE]
MIC [34]: ≥ 2500 µM
MIC (Escherichia coli): 2090 µM (≈ 2500 µg/mL)
MIC (Staphylococcus aureus): 2090 µM (≈ 2500 µg/mL)

The remaining lines, values ahead:

MIC [1]: ≥ 58.6 µM
MIC [26]: ≥ 58.6 µM
MIC [4]: ≥ 58.6 µM
MIC [27]: 29.3 µM (≈ 64 µg/mL)
Structure (SMILES): CC[C@H](C)[C@H](NC(=O)[C@H](Cc1c[nH]c2ccccc12)NC(=O)[C@H](CCCCN)NC(=O)[C@@H](N)CC(C)C)C(=O)NCC(=O)N[C@@H](CCCCN)C(=O)N[C@@H](Cc1c[nH]c2ccccc12)C(=O)N[C@H](C(=O)N[C@@H](Cc1c[nH]c2ccccc12)C(=O)N[C@@H](CCCN=C(N)N)C(=O)N[C@H](C(=O)NCC(=O)N[C@@H](Cc1c[nH]c2ccccc12)C(=O)N[C@@H](CC(N)=O)C(=O)N[C@@H](Cc1c[nH]c2ccccc12)C(=O)N[C@@H](CCCN=C(N)N)C(=O)O)C(C)C)[C@@H](C)CC [LKWIGKWIWRVGWNWR]

MIC [28]: 4 µM (≈ 9.38 µg/mL)
MIC [35]: 8 µM (≈ 18.8 µg/mL)
MIC [36]: ≥ 32 µM
MIC [37]: 4 µM (≈ 9.38 µg/mL)
MIC (Escherichia coli BW25113): 2 µM (≈ 4.69 µg/mL)
MIC [38]: 2 µM (≈ 4.69 µg/mL)
MIC [15]: 32 µM (≈ 75 µg/mL)
MIC [25]: 12 µM (≈ 28.1 µg/mL)
Structure (SMILES): CC[C@H](C)[C@H](NC(=O)[C@H](CCCN=C(N)N)NC(=O)[C@@H](N)Cc1c[nH]c2ccccc12)C(=O)N[C@@H](CCCN=C(N)N)C(=O)N[C@@H](CCCN=C(N)N)C(=O)N[C@@H](CCCN=C(N)N)C(=O)N[C@@H](Cc1c[nH]c2ccccc12)C(=O)N1CCC[C@H]1C(=O)N[C@@H](CCCN=C(N)N)C(=O)N[C@@H](CC(C)C)C(=O)N1CCC[C@H]1C(=O)N[C@@H](CCCN=C(N)N)C(=O)N1CCC[C@H]1C(=O)N[C@@H](CCCN=C(N)N)C(=O)N[C@@H](Cc1c[nH]c2ccccc12)C(=O)N[C@@H](CCCN=C(N)N)C(=O)O [WRIRRRWPRLPRPRWR]
